ChEMBL document CHEMBL1201862, “PubChem BioAssay data set” (2004)
Activity calls are given as the source filed them.

Columns and labels:
[1] = inhibitors of Trypanosoma cruzi host-cell infection, confirmation, beta-gal luminescence, NIH3T3 host cells (AID 2630); format: functional, cell-based; settings: Mus musculus
[2] = Luminescence Cell-Based Secondary HTS screen to identify cytotoxic compounds of NIH3T3 cells. [Related pubchem assays: 1885, 1968 ]; format: functional
[3] = Luminescence Cell-Based/Microorganism Confirmation at Dose of Inhibitors of Trypanosoma cruzi Infection. [Related pubchem assays: 1885, 1968 ]; format: functional
[4] = target: G-protein coupled receptor 55 (Homo sapiens, UniProt Q9Y2T6); test: GPR55 antagonists, SAR follow-up, counter-screen for GPR35 antagonist project, imaging, image-based (AID 2397); format: functional
Chain of G-protein coupled receptor 55 (Q9Y2T6 whole entry): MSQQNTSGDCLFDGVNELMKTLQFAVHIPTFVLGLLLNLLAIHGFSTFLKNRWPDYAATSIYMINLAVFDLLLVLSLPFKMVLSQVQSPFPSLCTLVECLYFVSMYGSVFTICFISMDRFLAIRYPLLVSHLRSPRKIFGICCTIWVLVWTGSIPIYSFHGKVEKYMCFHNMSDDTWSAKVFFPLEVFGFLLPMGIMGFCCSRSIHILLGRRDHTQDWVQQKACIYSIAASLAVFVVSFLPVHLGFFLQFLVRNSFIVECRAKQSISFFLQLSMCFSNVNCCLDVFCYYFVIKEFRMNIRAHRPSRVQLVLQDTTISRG

A-375 [5] = test: A375 melanoma cell viability reduction, dose response, counter-screen for MITF modulator project, cherry-pick samples, set 2 (AID 540335); format: functional, cell-based; settings: Homo sapiens
[6] = inhibitors of CMV-promoter luciferase reporter, dose response, counter-screen for Pax8 inhibitor project, cell-based, HEK293, luminescence, dry powder (AID 743020); format: functional
HeLa = test: Cytotoxicity counterscreen assay for transcriptional activators of heat shock protein 70 (Hsp70). [Related pubchem assays: 1203, 1252 ]; format: functional; settings: Homo sapiens;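 also: cells exposed to compound for 16 hours before readout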
[7] = target: T1, Microphthalmia-associated transcription factor (Homo sapiens, UniProt O75030); test: TRPM1 promoter luciferase signal decrease, dose response, MITF inhibitor project, cell-based, SK-MEL-5, cherry-picked, set 3 (AID 493073); format: functional
T1 sequence (O75030 whole entry): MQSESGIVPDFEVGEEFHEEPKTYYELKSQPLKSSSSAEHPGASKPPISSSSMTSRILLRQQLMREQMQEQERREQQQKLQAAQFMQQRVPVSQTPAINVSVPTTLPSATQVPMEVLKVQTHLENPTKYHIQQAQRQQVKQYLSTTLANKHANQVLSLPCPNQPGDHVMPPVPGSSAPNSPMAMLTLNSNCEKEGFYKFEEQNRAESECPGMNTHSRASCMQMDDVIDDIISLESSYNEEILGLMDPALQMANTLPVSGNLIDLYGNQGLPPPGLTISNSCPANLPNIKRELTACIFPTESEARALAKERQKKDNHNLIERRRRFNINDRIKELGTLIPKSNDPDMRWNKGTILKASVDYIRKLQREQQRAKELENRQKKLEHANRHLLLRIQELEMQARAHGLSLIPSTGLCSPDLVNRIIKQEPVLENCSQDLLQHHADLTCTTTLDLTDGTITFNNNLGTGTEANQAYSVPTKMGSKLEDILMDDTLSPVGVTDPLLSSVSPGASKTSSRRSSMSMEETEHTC

[8] = Shn3 3'UTR reporter inhibitors, dose response, cell-based, Clone20 osteoblasts, firefly luciferase, cherry-picked (AID 624132); format: functional;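 also: firefly luciferase luminescence from reporter carrying the Shn3 3'UTR in osteoblasts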
A-375 [9] = test: MITF: Counter assay: A375 proliferation Measured in Cell-Based System Using Plate Reader - 2084-03_Inhibitor_Dose_DryPowder_Activity. [Related pubchem assays (depositor defined):AID488944]; format: functional; settings: Homo sapiens
[10] = control 3'UTR Renilla luciferase suppression, dose response, counter-screen for Shn3 inhibitor project, cell-based, Clone20-Shn3RL, cherry-picked (AID 624133); format: functional
Paired box protein Pax-8 = Paired box protein Pax-8 (Homo sapiens, UniProt Q06710); test: inhibitors of PAX8-driven TPO luciferase reporter, dose response, RMG-I cells, cherry-pick (AID 687027); format: functional, cell-based;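 also: luciferase reporter driven by Pax8 target thyroperoxidase promoter measured by SteadyGlo luminescence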
Chain of Paired box protein Pax-8 (Q06710 whole entry): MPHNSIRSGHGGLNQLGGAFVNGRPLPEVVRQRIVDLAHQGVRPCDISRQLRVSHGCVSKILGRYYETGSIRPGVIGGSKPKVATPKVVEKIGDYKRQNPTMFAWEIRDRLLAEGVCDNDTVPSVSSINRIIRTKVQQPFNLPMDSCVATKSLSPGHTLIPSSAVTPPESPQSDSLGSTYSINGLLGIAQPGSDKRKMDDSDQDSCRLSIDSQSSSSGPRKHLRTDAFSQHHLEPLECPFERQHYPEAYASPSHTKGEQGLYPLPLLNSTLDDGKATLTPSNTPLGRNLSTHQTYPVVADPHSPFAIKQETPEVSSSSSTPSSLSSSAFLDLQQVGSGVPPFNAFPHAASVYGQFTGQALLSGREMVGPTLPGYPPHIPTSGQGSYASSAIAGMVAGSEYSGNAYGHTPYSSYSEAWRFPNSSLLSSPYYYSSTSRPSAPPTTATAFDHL

[11] = HepG2 cell cytotoxicity, dose response, cytotoxicity control for Shn3 inhibitor project, CellTiter-Glo, cherry-picked (AID 624134); format: functional, cell-based
Escherichia coli = test: microbe, parasite or virus in culture
[12] = target: Lysine-specific demethylase 4C (Homo sapiens, UniProt Q9H3R0); test: GASC-1 (JMJD2C) histone demethylase inhibitors, dose response, biochemical, DELFIA europium, cherry-picked samples (AID 488835); format: functional
Chain of Lysine-specific demethylase 4C (Q9H3R0 whole entry): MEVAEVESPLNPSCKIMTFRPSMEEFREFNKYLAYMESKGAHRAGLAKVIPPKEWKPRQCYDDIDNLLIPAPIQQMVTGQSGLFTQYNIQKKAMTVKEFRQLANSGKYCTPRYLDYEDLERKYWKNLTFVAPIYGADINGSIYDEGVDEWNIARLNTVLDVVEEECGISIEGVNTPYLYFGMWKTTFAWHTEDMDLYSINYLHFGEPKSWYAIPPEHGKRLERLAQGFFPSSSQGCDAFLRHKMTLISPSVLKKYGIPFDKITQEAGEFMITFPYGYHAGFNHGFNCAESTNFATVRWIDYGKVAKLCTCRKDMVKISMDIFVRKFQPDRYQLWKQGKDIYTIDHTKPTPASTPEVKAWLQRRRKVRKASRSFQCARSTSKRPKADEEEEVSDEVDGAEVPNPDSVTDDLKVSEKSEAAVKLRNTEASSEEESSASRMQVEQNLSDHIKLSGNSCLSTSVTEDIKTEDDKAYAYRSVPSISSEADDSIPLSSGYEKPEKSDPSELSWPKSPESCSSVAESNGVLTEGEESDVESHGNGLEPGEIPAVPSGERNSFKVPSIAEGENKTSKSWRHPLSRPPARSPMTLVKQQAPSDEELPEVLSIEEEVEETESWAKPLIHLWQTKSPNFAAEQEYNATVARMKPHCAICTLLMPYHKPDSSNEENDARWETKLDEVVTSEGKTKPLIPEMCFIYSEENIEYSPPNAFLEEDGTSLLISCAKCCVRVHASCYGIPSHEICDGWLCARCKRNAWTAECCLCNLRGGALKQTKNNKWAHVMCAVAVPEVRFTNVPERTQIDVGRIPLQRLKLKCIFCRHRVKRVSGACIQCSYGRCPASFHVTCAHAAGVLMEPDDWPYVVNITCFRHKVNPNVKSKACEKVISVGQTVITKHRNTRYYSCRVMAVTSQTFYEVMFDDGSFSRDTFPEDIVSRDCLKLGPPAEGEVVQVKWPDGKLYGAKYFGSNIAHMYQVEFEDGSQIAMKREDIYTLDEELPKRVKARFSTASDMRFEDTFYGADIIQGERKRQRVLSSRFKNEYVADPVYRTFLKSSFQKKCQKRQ

What does the source list for `CC(C)c1cccc(OCCCCN(C)C)c1`?
EC50 [1]: 2.18 µM (active); EC50 [2]: > 195 µM (not active); EC50 [3]: 2.18 µM (active)

Which IC50 [4] does the source give for `Cc1c(C(=O)Nc2ccc3c(c2)OCCO3)sc2ncnc(O)c12` here?
Its IC50 is > 32 µM (inactive).

For `CCC(=O)N1CCN(c2ccc(NC(=O)c3ccc([N+](=O)[O-])o3)cc2Cl)CC1`, which AC50 (A-375 [5]) is on record?
Its AC50 is > 35 µM (active).

And the AC50 [6]?
Its AC50 is 2.21 µM (active).

And the CC50 (HeLa)?
The CC50 was 4.57 µM (active).

And the AC50 [7]?
Its AC50 is 6.09 µM (active).

And the AC50 [8]?
The AC50 was 0.85 µM (active).

And the AC50 (A-375 [9])?
The AC50 was > 35 µM (active).

And the AC50 [10]?
Its AC50 is 5.2 µM (active).

What about the AC50 (Paired box protein Pax-8) of the same molecule?
Its AC50 is 4.12 µM (active).

What about the AC50 [11] of the same molecule?
The AC50 was 20.5 µM (active).

With `CC(=O)N1Cc2cc([N+](=O)[O-])ccc2Oc2ccccc21` as the molecule, how does the AC50 (Escherichia coli) read?
The AC50 was 28.5 µM (active).

For `Nc1c(O)nc(O)nc1C(=O)OCC(=O)Nc1ccc(Cl)cc1[N+](=O)[O-]`, which AC50 [12] is on record?
Its AC50 is 8.98 µM (active).
